From patent US10899754B2, “Modulators of indoleamine 2,3-dioxygenase” (GLAXOSMITHKLINE INTELLECTUAL PROPERTY DEVELOPMENT LIMITED, priority 2016, dated 2021)

Experiments:
Type in all cases: cell-based
[1] = biological target: T1, indoleamine 2, 3-dioxygenase (IDO1) (Homo sapiens, UniProt P14902); assay: IDO1 PBMC RapidFire MS assay (kynurenine detection by mass spectrometry); parameters: to induce the expression of indoleamine 2, 3-dioxygenase (IDO1); host or cells: human PBMC stimulated with IFN-gamma and LPS; conditions: human PBMC stimulated with IFN-γ and LPS, 2 days, pIC50, read-out: PBMC PXC50 (converted)
Method in brief: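 PBMCs (50,000 cells/well) stimulated with IFN-γ 100 ng/ml plus LPS 50 ng/ml, treated with 11-point 3-fold compound series for 2 days at 37° C. Supernatant kynurenine measured by RapidFire MS, normalised to internal standard; parallel cytotoxicity by CellTiter-Glo luminescence; curves fitted for XC50.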

[2] = tested on: human peripheral blood mononuclear cells (PBMC); assay: PBMC cytotoxicity assay (CellTiter-Glo); conditions: 2 days, pCC50
Method in brief: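 Human PBMC (50,000 cells/well) stimulated with IFN-γ 100 ng/ml and LPS 50 ng/ml were exposed to 11-point 3-fold compound dilutions for 2 days at 37 °C, 5% CO2. Viability read by CellTiter-Glo ATP luminescence and normalized to no-cell and stimulated-DMSO controls. XC50 derived by four-parameter fit.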

[3] = tested on: human epithelial HeLa cells; assay: HeLa cytotoxicity assay (CellTiter-Glo); conditions: pCC50
Method in brief: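 HeLa cells (5,000/well) stimulated with 10 nM IFN-γ, exposed to 11-point 3-fold compound dilutions for 2 days at 37 °C; viability by CellTiter-Glo ATP luminescence. Normalized to cell-free (100% cytotoxicity) and stimulated-cell DMSO (0%) controls; four-parameter fit gives pCC50.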

[4] = biological target: T1, indoleamine 2, 3-dioxygenase (IDO1); assay: IDO1 HeLa RapidFire MS assay (kynurenine detection by mass spectrometry); parameters: to induce the expression of indoleamine 2, 3-dioxygenase (IDO1); conditions: HeLa cells, pIC50, read-out: IDO1_HELA_PXC50 (converted)
Method in brief: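 Compound potency reported as pIC50 from kynurenine/internal-standard ratio (RapidFire MS) in supernatant of IFN-γ-induced (10 nM) HeLa cells, 5,000 per well, after 2 days' treatment with 11-point dilutions. Cytotoxicity in the same format by luminescent ATP detection, reported as pCC50.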

T1 sequence (P14902 whole entry): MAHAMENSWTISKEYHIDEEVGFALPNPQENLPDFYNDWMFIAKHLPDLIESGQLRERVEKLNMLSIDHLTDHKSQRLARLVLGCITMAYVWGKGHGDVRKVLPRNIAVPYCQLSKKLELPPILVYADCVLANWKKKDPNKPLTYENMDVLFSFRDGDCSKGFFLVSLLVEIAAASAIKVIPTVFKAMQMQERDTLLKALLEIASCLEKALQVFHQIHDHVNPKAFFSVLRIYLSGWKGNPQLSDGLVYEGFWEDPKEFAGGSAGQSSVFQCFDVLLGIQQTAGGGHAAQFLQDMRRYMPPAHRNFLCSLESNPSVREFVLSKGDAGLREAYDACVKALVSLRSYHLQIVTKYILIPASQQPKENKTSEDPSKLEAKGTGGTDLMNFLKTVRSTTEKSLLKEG

Structure (SMILES) | IC50 [1] | PBMC TOX PXC50 [2] | HELA_IDO1_TOX_PXC50 [3] | IC50 [4]
CO[C@H]1CC[C@@H](N(CC(C)C)c2ccc(-c3ccccc3C(=O)O)cc2Nc2nc(C(F)(F)F)ns2)CC1 [example 276, 4′-[(2-methylpropyl)[(1s,4s)-4-methoxycyclohexyl]ami-no]-3′-{[3-(trifluoromethyl)-1,2,4-thiadiazol-5-yl]amino}-[1,1′-biphenyl]-2-carboxylic acid] | > 10000 nM | <5 | <5 | 3.98 nM
CC(C)CN(c1ccc([C@H](C)CC(=O)O)cc1Nc1cnc(C(F)(F)F)nc1)C1CCOCC1 [Example 9, (R)-3-(4-(isobutyl(tetrahydro-2H-pyran-4-yl)amino)-3-((2-(trifluoromethyl)pyrimidin-5-yl)amino)phenyl)butanoic Acid] | 1 nM | <5 | <5 | 2.51 nM
CC[C@H](CC(=O)O)c1ccc(N(CC(C)C)CC(C)C)c(Nc2nc(C(F)(F)F)ns2)c1 [Example 39, (R)-3-(4-(diisobutylamino)-3-((3-(trifluoromethyl)-1,2,4-thiadiazol-yl)amino)phenyl)pentanoic Acid] | 1 nM | <5 | <5 | 2.51 nM
COCC(=O)N1CCC(N(CC(C)C)c2ccc([C@H](C)CC(=O)O)cc2Nc2nc(C(F)(F)F)ns2)CC1 [Example 72, (R)-3-(4-(isobutyl(1-(2-methoxyacetyl)piperidin-4-yl)amino)-3-((3-(trifluoromethyl)-1,2,4-thiadiazol-5-yl)amino)phenyl)butanoic Acid] | 10 nM | <5 | <5 | 39.8 nM
CC(C)CN(c1ccc(C(C)CC(=O)O)cc1NC1=N[C@H](C)CO1)C1CCCCC1 (stereo partly drawn) [example 151, 3-{4-[cyclohexyl(2-methylpropyl)amino]-3-{[(4R)-4-methyl-4,5-dihydro-1,3-oxazol-2-yl]amino}phenyl}butanoic acid] | 2510 nM | <5 | <5 | 2000 nM
CC(C)CN(c1ccc([C@H](C)CC(=O)O)cc1Nc1nnc(C(N)=O)s1)C1CCCCC1 [Example 81, (R)-3-(3-((5-Carbamoyl-1,3,4-thiadiazol-2-yl)amino)-4-(cyclohexyl(isobutyl)amino)phenyl)butanoic] | 3.98 nM | <5 | <5 | 7.94 nM
CC(C)CN(c1ccc(C(C)CC(=O)O)cc1NC1=N[C@@H](c2ccccc2)CO1)C1CCCCC1 (stereo partly drawn) [example 153, 3-{4-[cyclohexyl(2-methylpropyl)amino]-3-{[(4S)-4-phenyl-4,5-dihydro-1,3-oxazol-2-yl]amino}phenyl}butanoic acid] | 2000 nM | <5 | <5 | 3980 nM
CC(C)CN(CC(C)C)c1ccc([C@H](C)CC(=O)O)cc1Nc1nnc(C(F)(F)F)s1 [Example 87, (R)-3-(4-(diisobutylamino)-3-((5-(trifluoromethyl)-1,3,4-thiadiazol-2-yl)amino)phenyl)butanoic Acid] | 3.98 nM | <5 | <5 | 7.94 nM
CC(C)CN(c1ccc(C(C)OCC(=O)O)cc1Nc1ccc(C#N)cn1)C1CCCCC1 (stereo not shown) [Example 113, 2-(1-(3-((5-cyanopyridin-2-yl)amino)-4-(cyclohexyl(isobutyl)amino)phenyl)ethoxy)acetic Acid] | 5.01 nM | <5 | <5 | 10 nM
CC(C)CN(CC(C)C)c1ccc(-c2ccccc2C(=O)O)cc1Nc1nc(Cl)ns1 [example 294, 4′-[bis(2-methylpropyl)amino]-3′-[(3-chloro-1,2,4-thiadiazol-5-yl)amino]-[1,1′-biphenyl]-2-carboxylic acid] | 20 nM | <5 | <5 | 39.8 nM
CC(C)CN(c1ccc(C(C)CC(=O)O)cc1NCc1ccccn1)C1CCCCC1 (stereo not shown) [example 161, 3-{4-[cyclohexyl(2-methylpropyl)amino]-3-{[(pyridin-2-yl)methyl]amino}phenyl} butanoic acid] | 2000 nM | <5 | <5 | 2510 nM
CC(C)CN(CC(C)C)c1ccc(C2CC2C(=O)O)cc1Nc1nc(C(F)(F)F)ns1 (stereo not shown) [example 174, 2-{4-[bis(2-methylpropyl)amino]-3-{[3-(trifluoromethyl)-1,2,4-thiadiazol-5-yl]amino}phenyl}cyclo-propane-1-carboxylic acid] | 12.6 nM | <5 | <5 | 12.6 nM
CC(C)CN(c1ccc(C(C)(C)CC(=O)O)cc1Nc1nc(Cl)ns1)C1CCCCC1 [Example 2, 3-(3-((3-chloro-1,2,4-thiadiazol-5-yl)amino)-4-(cyclohexyl(isobutyl)amino)phenyl)-3-methylbutanoic Acid] | 1.58 nM | <5 | <5 | 7.94 nM
CC[C@@H](CC(=O)O)c1ccc(N(CC(C)C)C2CCCCC2)c(Nc2nc(Cl)ns2)c1 [example 166, (3S)-3-{3-[(3-chloro-1,2,4-thiadiazol-5-yl)amino]-4-[cyclohexyl(2-methylpropyl)amino]phenyl}pentanoic acid] | 0.316 nM | 5.1 | <5 | 10 nM
CO[C@H]1CC[C@@H](N(CC(C)C)c2ccc([C@H](C)CC(=O)O)cc2Nc2n[nH]c(Cl)n2)CC1 [Example 61, (R)-3-(3-((5-chloro-1H-1,2,4-triazol-3-yl)amino)-4-(isobutyl((cis)-4-methoxycyclohexyl)amino)phenyl)butanoic Acid] | 2 nM | <5 | <5 | 6.31 nM
CC(C)CN(c1ccc(C(C)CC(=O)O)cc1NC1=NC(=O)[C@@H](c2ccccc2)N1)C1CCCCC1 (stereo partly drawn) [example 155, 3-{4-[cyclohexyl(2-methylpropyl)amino]-3-{[(5R)-4-oxo-5-phenyl-4,5-dihydro-1H-imidazol-2-yl]amino}phenyl}butanoic acid] | 1580 nM | <5 | <5 | 1000 nM
CC(C)CN(c1ccc(C(C)(C)CC(=O)O)cc1Nc1nc(Cl)ns1)C1CCOCC1 [Example 5, 3-(3-((3-chloro-1,2,4-thiadiazol-5-yl)amino)-4-(isobutyl(tetrahydro-2H-pyran-4-yl)amino)phenyl)-3-methylbutanoic Acid] | 5.01 nM | <5 | <5 | 25.1 nM
CC(C)CN(c1ccc(-c2ccccc2C(=O)O)cc1Nc1nc(C(N)=O)ns1)C1CCCCC1 [Example 91, 3′-((3-carbamoyl-1,2,4-thiadiazol-5-yl)amino)-4′-(cyclohexyl(isobutyl)amino)-[1,1′-biphenyl]-2-carboxylic acid] | 10 nM | <5 | <5 | 20 nM
CC(C)CN(c1ccc([C@H](C)CC(=O)O)cc1Nc1nc(C(F)(F)F)ns1)C1CCN(C(=O)OC(C)C)CC1 [Example 65, (R)-3-(4-(isobutyl(1-(isopropoxycarboxyl)piperidin-4-yl)amino)-3-((3-(trifluoromethyl)-1,2,4-thiadiazol-5-yl)amino)phenyl)butanoic Acid] | 1.26 nM | <5 | <5 | 3.98 nM
CC(C)CN(c1ccc([C@H](C)CC(=O)O)cc1Nc1nc(C(F)(F)F)ns1)[C@H]1CC[C@@H](O)CC1 [Example 59, (R)-3-(4-(((1s,4S)-4-hydroxycyclohexyl) (isobutyl)amino)-3-((3-(trifluoromethyl)-1,2,4-thiadiazol-5-yl)amino)phenyl)butanoic Acid] | 6.31 nM | <5 | <5 | 10 nM
CC(C)CN(c1ccc(-c2cccnc2C(=O)O)cc1Nc1nc2ccccc2o1)C1CCCCC1 [example 290, 3-{3-[(1,3-benzoxazol-2-yl)amino]-4-[cyclohexyl(2-methylpropyl)amino]phenyl}pyridine-2-carboxylic acid] | 50.1 nM | <5 | <5 | 126 nM
CC(C)CN(c1ccc([C@H](C)CC(=O)O)cc1Nc1ccc(Cl)nc1)[C@H]1CC[C@H](O)CC1 [Example 49, (R)-3-(3-((6-chloropyridin-3-yl)amino)-4-(((1r,4R)-4-hydroxycyclohexyl) (isobutyl)amino)phenyl)butanoic Acid] | 2 nM | <5 | <5 | 6.31 nM
